# Assay results taken from patent US20090270496A1, “ANTIFUNGAL COMPOUNDS” (priority 2007, published 2009).
# Assays:
# [1] = during chronic treatment; cited from earlier work
# [2] = cited from earlier work
# [3] = system: cytoplasmic Ca2+ in S. cerevisiae cells (FY70 [pEVP11/AEQ]); assay: Aequorin luminescence, yeast cytoplasmic Ca2+; format: cell-based, Saccharomyces cerevisiae; settings: 50 μM added at t=30 sec, monitored […]; further: monitored 3.5 min
# Protocol: Cells were transformed with pEVP11/AEQ, which constitutively expresses apoaequorin directed to the cytoplasm (Batiza et al., 1996) Transformed cells were grown to mid-exponential phase in SD-leu to maintain the plasmid. 1.5×10^7 cells were pelleted and resuspended in fresh SD-leu medium containing 5.9 μM coelenterazine for 1 hour to allow the cofactor to diffuse into cells and bind the apoaequorin. Cells were pelleted again and resuspended in fresh SD-leu (“SD” buffer) and 2.5×10^6 cells per well aliquoted to a microtiter plate for luminescence measurement. Luminescence was measured in an EG&G Berthold luminometer using Winglow monitoring and analysis software.
# S. cerevisiae cells were prepared for aequorin assays as just described.
# Gi2 = Gi2 (Homo sapiens, UniProt P04899); settings: reconstituted Gi2, in vitro; read-out: EC50, activation of GTPase; cited from earlier work
# HL-60 cells = settings: in the presence but not in the absence of extracellular Ca2+; cited from earlier work
# Chain of Gi2 (P04899 2-355 limits assumed): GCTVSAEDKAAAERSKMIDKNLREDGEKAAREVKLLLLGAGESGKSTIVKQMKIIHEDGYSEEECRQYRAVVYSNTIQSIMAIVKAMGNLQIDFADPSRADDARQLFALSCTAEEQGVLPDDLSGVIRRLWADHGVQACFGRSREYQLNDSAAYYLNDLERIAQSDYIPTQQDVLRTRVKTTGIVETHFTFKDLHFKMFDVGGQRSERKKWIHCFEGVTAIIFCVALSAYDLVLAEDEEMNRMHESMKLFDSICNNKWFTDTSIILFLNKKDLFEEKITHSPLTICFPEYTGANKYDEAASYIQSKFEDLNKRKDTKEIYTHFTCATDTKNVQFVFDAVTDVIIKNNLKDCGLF
SMILES,plasma ratio of metabolite to parent compound [1],"ataxia, patients affected ([2]; especially during loading doses)","pulmonary fibrosis or pneumonitis fatal, cases ([2]; human, in vivo)",increase in RLUs (cytoplasmic Ca2+) [3],increase in RLUs (cytoplasmic Ca2+) ([3]; listed as amiodarone),EC50 (Gi2),cytosolic Ca2+ concentration (HL-60 cells)
CCCCc1oc2ccccc2c1C(=O)c1cc(I)c(OCCNCC)c(I)c1 [desethylamiodarone],approximately one,,,,,,
"CCCCc1oc2ccccc2c1C(=O)c1cc(I)c(OCCN(CC)CC)c(I)c1 [Amiodarone, amiodarone]",,20-40%,about 10%,immediate and very large increase,immediate and huge increase,50 µM,increased
